Test results taken from ChEMBL document CHEMBL1201862, “PubChem BioAssay data set” (2004).
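Compound exposure: 48 hours, 5 concentrations, 96-well plates. GI50 is the concentration that inhibits growth by half.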 Active and inactive are the calls of the source. Rule as the data show it: active = GI50 up to about 1.1 µM and inactive = higher.

Columns and labels:
Experiment in all cases: NCI tumour cell line growth inhibition, 48 h
KM12 = test system: KM12
HOP-92 = test system: HOP-92
COLO 205 = test system: COLO 205
UACC-62 = test system: UACC-62
SK-OV-3 = test system: SK-OV-3
SW-620 = test system: SW-620
CCRF-CEM = test system: CCRF-CEM
SNB-19 = test system: SNB-19
NCI/ADR-RES = test system: NCI/ADR-RES
ACHN = test system: ACHN
HCT-116 = test system: HCT-116
OVCAR-5 = test system: OVCAR-5
MDA-N = test system: MDA-N
OVCAR-8 = test system: OVCAR-8
DU-145 = test system: DU-145
SF-539 = test system: SF-539
T47D = test system: T47D
UACC-257 = test system: UACC-257
TK-10 = test system: TK-10
SK-MEL-28 = test system: SK-MEL-28

Row | SMILES | GI50 (KM12) | GI50 (HOP-92) | GI50 (COLO 205) | GI50 (UACC-62) | GI50 (SK-OV-3) | GI50 (SW-620) | GI50 (CCRF-CEM) | GI50 (SNB-19) | GI50 (NCI/ADR-RES) | GI50 (ACHN) | GI50 (HCT-116) | GI50 (OVCAR-5) | GI50 (MDA-N) | GI50 (OVCAR-8) | GI50 (DU-145) | GI50 (SF-539) | GI50 (T47D) | GI50 (UACC-257) | GI50 (TK-10) | GI50 (SK-MEL-28)
1 | CC(C)Cc1c(C#N)c(C#N)c(N)n1Cc1ccccc1 | > 100 µM (inactive) | > 100 µM (inactive) | > 100 µM (inactive) | 55.5 µM (inactive) | > 100 µM (inactive) | > 100 µM (inactive) | > 100 µM (inactive) | > 100 µM (inactive) | > 100 µM (inactive) | 82.4 µM (inactive) | > 100 µM (inactive) | > 100 µM (inactive) | > 100 µM (inactive) | > 100 µM (inactive) | > 100 µM (inactive) | > 100 µM (inactive) | > 100 µM (inactive) | > 100 µM (inactive) | > 100 µM (inactive) | 
2 | CCn1c(=O)c2c3cc(OC(C)=O)ccc3oc2c2ccc(OC(C)=O)cc21 | 40.1 µM (inactive) | 23.4 µM (inactive) | 20.7 µM (inactive) | 21.7 µM (inactive) | 75.9 µM (inactive) | 38.4 µM (inactive) | 17.2 µM (inactive) | 46.9 µM (inactive) | 36.9 µM (inactive) | 24.8 µM (inactive) | 32.2 µM (inactive) |  | 33.3 µM (inactive) | 30.8 µM (inactive) | 36.1 µM (inactive) | 27.5 µM (inactive) | 20.2 µM (inactive) | 55.1 µM (inactive) | 29.5 µM (inactive) | 49 µM (inactive)
3 | c1ccc(/N=C2\c3ccccc3CN2c2ccccc2)cc1 | > 100 µM (inactive) | 46.5 µM (inactive) | > 100 µM (inactive) | > 100 µM (inactive) | > 100 µM (inactive) | > 100 µM (inactive) | > 100 µM (inactive) | > 100 µM (inactive) | > 100 µM (inactive) | > 100 µM (inactive) | > 100 µM (inactive) |  | > 100 µM (inactive) | > 100 µM (inactive) | > 100 µM (inactive) | > 100 µM (inactive) | 80.2 µM (inactive) | > 100 µM (inactive) | > 100 µM (inactive) | > 100 µM (inactive)
4 | COC(=O)c1c2c(cc3c1CC1(Cc4cc5c(c(C=O)c4C1)CCC5)C3)CCC2 (stereo unspecified) |  | 19.3 µM (inactive) |  |  | 42.5 µM (inactive) | 53.2 µM (inactive) | 13.4 µM (inactive) | 44.7 µM (inactive) | 40.5 µM (inactive) | 32.9 µM (inactive) | 21.2 µM (inactive) | 67.8 µM (inactive) | 34 µM (inactive) | 42.8 µM (inactive) | 38.1 µM (inactive) | 75.5 µM (inactive) | 30.7 µM (inactive) | 21.2 µM (inactive) | 98.4 µM (inactive) | 52.5 µM (inactive)
5 | CC(=O)/C(=C\c1ccc(Cl)c(Cl)c1)C(=O)C(C)CN(C)C (stereo unspecified) | 2.18 µM (inactive) | 2.26 µM (inactive) | 11.4 µM (inactive) |  | 16.5 µM (inactive) | 2.69 µM (inactive) | < 0.01 µM (active) | 1.8 µM (inactive) | 13.1 µM (inactive) | 5.24 µM (inactive) | 2.13 µM (inactive) | 10.8 µM (inactive) | 3.62 µM (inactive) | 1.91 µM (inactive) | 4.43 µM (inactive) | 3.52 µM (inactive) | 2.65 µM (inactive) | 10.4 µM (inactive) | 1.94 µM (inactive) | 6.89 µM (inactive)
6 | S=C1NCCN1C(=S)Nc1ccccc1 | 49.9 µM (inactive) | 66.8 µM (inactive) | 71.6 µM (inactive) | 96.8 µM (inactive) | > 100 µM (inactive) | > 100 µM (inactive) | 62.2 µM (inactive) |  | > 100 µM (inactive) | > 100 µM (inactive) | 91.2 µM (inactive) | > 100 µM (inactive) | > 100 µM (inactive) | > 100 µM (inactive) | > 100 µM (inactive) | 46.3 µM (inactive) | 40.1 µM (inactive) | 96.2 µM (inactive) | 95.9 µM (inactive) | 56.2 µM (inactive)
7 | Clc1ccc(/C=C/c2nc(-c3ccc(Cl)cc3)cn3c2nc2ccccc23)cc1 | > 100 µM (inactive) | > 100 µM (inactive) | > 100 µM (inactive) | > 100 µM (inactive) | > 100 µM (inactive) | > 100 µM (inactive) | > 100 µM (inactive) | > 100 µM (inactive) | > 100 µM (inactive) | > 100 µM (inactive) | > 100 µM (inactive) | > 100 µM (inactive) | > 100 µM (inactive) |  | > 100 µM (inactive) | > 100 µM (inactive) | 88.7 µM (inactive) | > 100 µM (inactive) | > 100 µM (inactive) | > 100 µM (inactive)
